Assays:
[1] = molecular target: T1, Transcription regulator protein BACH1 (Homo sapiens) (UniProt O14867); experiment: Inhibition of Bach1 in normal human lung fibroblasts assessed as induction of HMOX protein expression at 5 uM incubated for 16 to 18 hrs by immunostaining relative to control
T1 sequence (whole entry): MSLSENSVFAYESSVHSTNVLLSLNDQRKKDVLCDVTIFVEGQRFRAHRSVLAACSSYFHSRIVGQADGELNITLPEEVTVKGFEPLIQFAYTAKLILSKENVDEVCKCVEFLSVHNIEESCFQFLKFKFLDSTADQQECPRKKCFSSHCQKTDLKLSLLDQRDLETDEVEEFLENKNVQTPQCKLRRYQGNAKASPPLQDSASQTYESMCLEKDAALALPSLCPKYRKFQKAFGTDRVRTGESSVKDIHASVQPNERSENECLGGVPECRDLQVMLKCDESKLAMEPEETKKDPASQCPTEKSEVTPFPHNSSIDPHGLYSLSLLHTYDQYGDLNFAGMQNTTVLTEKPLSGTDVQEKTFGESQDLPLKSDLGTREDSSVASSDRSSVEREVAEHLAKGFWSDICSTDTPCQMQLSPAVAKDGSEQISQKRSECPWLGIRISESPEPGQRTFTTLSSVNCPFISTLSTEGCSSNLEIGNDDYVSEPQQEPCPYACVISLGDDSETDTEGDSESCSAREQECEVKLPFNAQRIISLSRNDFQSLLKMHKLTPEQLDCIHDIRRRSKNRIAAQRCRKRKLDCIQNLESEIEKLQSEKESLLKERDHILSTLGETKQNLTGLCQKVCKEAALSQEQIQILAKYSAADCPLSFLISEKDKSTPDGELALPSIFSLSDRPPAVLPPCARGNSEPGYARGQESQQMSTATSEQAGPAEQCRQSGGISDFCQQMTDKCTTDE

[2] = molecular target: T1, Transcription regulator protein BACH1 (Homo sapiens); experiment: Inhibition of Bach1 in normal human lung fibroblasts assessed as induction of HMOX protein expression at 0.312 uM incubated for 16 to 18 hrs in presence of 0.0024 uM Nrf2 activator Bardoxolone methyl by immunostaining relative to control
[3] = molecular target: T1, Transcription regulator protein BACH1 (Homo sapiens); experiment: Inhibition of Bach1 in normal human lung fibroblasts assessed as induction of HMOX protein expression at 2.5 uM incubated for 16 to 18 hrs in presence of 0.0024 uM Nrf2 activator Bardoxolone methyl by immunostaining relative to control
[4] = molecular target: T1, Transcription regulator protein BACH1 (Homo sapiens); experiment: Inhibition of Bach1 in normal human lung fibroblasts assessed as induction of HMOX protein expression at 0.019 uM incubated for 16 to 18 hrs in presence of 0.0048 uM Nrf2 activator Bardoxolone methyl by immunostaining relative to control
[5] = molecular target: T1, Transcription regulator protein BACH1 (Homo sapiens); experiment: Inhibition of Bach1 in normal human lung fibroblasts assessed as induction of HMOX protein expression at 1.25 uM incubated for 16 to 18 hrs in presence of 0.0048 uM Nrf2 activator Bardoxolone methyl by immunostaining relative to control
[6] = molecular target: T1, Transcription regulator protein BACH1 (Homo sapiens); experiment: Inhibition of Bach1 in normal human lung fibroblasts assessed as induction of HMOX protein expression at 0.156 uM incubated for 16 to 18 hrs in presence of 0.0097 uM Nrf2 activator Bardoxolone methyl by immunostaining relative to control
[7] = molecular target: T1, Transcription regulator protein BACH1 (Homo sapiens); experiment: Inhibition of Bach1 in normal human lung fibroblasts assessed as induction of HMOX protein expression at 0.312 uM incubated for 16 to 18 hrs in presence of 0.0097 uM Nrf2 activator Bardoxolone methyl by immunostaining relative to control
[8] = molecular target: T1, Transcription regulator protein BACH1 (Homo sapiens); experiment: Inhibition of Bach1 in normal human lung fibroblasts assessed as induction of HMOX protein expression at 2.5 uM incubated for 16 to 18 hrs in presence of 0.0097 uM Nrf2 activator Bardoxolone methyl by immunostaining relative to control
[9] = molecular target: T1, Transcription regulator protein BACH1 (Homo sapiens); experiment: Inhibition of Bach1 in normal human lung fibroblasts assessed as induction of HMOX protein expression at 0.156 uM incubated for 16 to 18 hrs in presence of 0.019 uM Nrf2 activator Bardoxolone methyl by immunostaining relative to control
[10] = molecular target: T1, Transcription regulator protein BACH1 (Homo sapiens); experiment: Inhibition of Bach1 in normal human lung fibroblasts assessed as induction of HMOX protein expression at 0.312 uM incubated for 16 to 18 hrs in presence of 0.019 uM Nrf2 activator Bardoxolone methyl by immunostaining relative to control
[11] = molecular target: T1, Transcription regulator protein BACH1 (Homo sapiens); experiment: Inhibition of Bach1 in normal human lung fibroblasts assessed as induction of HMOX protein expression at 0.019 uM incubated for 16 to 18 hrs in presence of 0.156 uM Nrf2 activator Bardoxolone methyl by immunostaining relative to control
[12] = molecular target: T1, Transcription regulator protein BACH1 (Homo sapiens); experiment: Inhibition of Bach1 in normal human lung fibroblasts assessed as induction of HMOX protein expression at 0.156 uM incubated for 16 to 18 hrs in presence of 0.156 uM Nrf2 activator Bardoxolone methyl by immunostaining relative to control

For CNC(=O)c1ccc2c(c1)nc(Nc1nc3ccc(OC(F)(F)F)cc3s1)n2C, the fold change (FC) [1] was 17.7, the fold change (FC) [2] was 11.7 and the fold change (FC) [3] was 18.8. The fold change (FC) [4] was 2.88, the fold change (FC) [5] was 17.3 and the fold change (FC) [6] was 12.1. For the same compound, the fold change (FC) [7] was 16.4, the fold change (FC) [8] was 19.4 and the fold change (FC) [9] was 15.9. The fold change (FC) [10] was 17.7, the fold change (FC) [11] was 22.9 and the fold change (FC) [12] was 18.3.

Source: ChEMBL document CHEMBL4421728, “Bach1 Inhibitors in Combination with Nrf2 Activators and Pharmaceutical Compositions Thereof” (2017)
